Experimental data taken from US20190358199A1 (priority 2010, published 2019).

Legend:
[1] = tested on: patients with Major Depressive Disorder; experiment: Six-week double-blind placebo-controlled Phase 2 study, efficacy; format: in vivo, human
From the text: Subjects were identified who were between the ages of 18-65 (inclusive), and met criteria for Major Depressive Disorder in accordance with the Diagnostic and Statistical manual of Mental Disorders-IV-TR and confirmed by the MINI International Neuropsychiatric Interview.
Subjects were required to refrain from taking antidepressants, anticonvulsants including gabapentin and pregabalin, neuroleptics, MAO inhibitors, barbiturates, benzodiazepines, stimulants, antipsychotics, lithium, anxiolytics and beta blockers starting two weeks prior to the study and continuing until after the follow-up visit.
(§1) • Visits and evaluations were performed according to the following schedule of events: • Visit 1: Screening Visit: • The following was obtained/performed at the Screening Visit (Visit 1): • Written informed consent • Medical history including: • Relevant demographic information • Detailed medical and surgical history, including review of systems • Whenever possible, the patient's medical history was confirmed by medical records. • Prior medication: Medication taken by the patients 30 days prior to the Screening Visit was recorded. • AE assessment • Height (cm) • Weight (kg); BMI was determined and was ≤35 for the patient to be randomized • Complete physical examination • MINI diagnostic exam • Vital signs (respiratory rate, oral temperature (° C.), blood pressure, pulse). […] The capsules were taken for 7 days prior to the Baseline/Day 1 Visit (Visit 3). The first dose of placebo was taken at the clinic with 240 mL of water after a light meal. • Patients were provided with a diary to record the date, time and dosage of each dose.
(§2) Efficacy was determined by measuring the change from baseline in the Montgomery-Åsberg Depression Rating Scale (MADRS), the HAMD-17, the Clinical Global Impression Global Improvement Scale (CGI-I), the Clinical Global Impression-Severity scale (CGI-S) and the Derogatis Interview for Sexual Functioning Self-Report (DISF-SR). […] Comparisons between treatment groups based on MADRS (the primary efficacy parameter), HAMD-17, Anhedonia, DISF-SR, CGI-I and CGI-S scores were analyzed using a mixed-repeated measures (MMRM) analysis model including factors for Subject, Visit, Treatment Arm and Baseline value as a covariate. Adjusted least-squares means from these models are presented. Comparisons between groups were made at each post-baseline visit using model-based contrasts and adjusted degrees of freedom. For these analyses no explicit data imputations were made prior to the analysis. Response and remission categorical data were analyzed using chi-square tests. Inferential analyses of safety data were conducted with ANOVA models or chi-square tests. Two-tail alpha was set to 0.05. All analyses were conducted using SAS version 9.2.

[2] = Six-week double-blind placebo-controlled Phase 2 study, safety and tolerability; format: in vivo, human
Method: Subjects were evaluated for safety parameters prior to and throughout the trial by a variety of measures including electrocardiogram, physical examination, vital signs and body weight, and clinical laboratory testing including a lipid panel, CBC with differential and urinalysis, Samples were drawn to assess total bilirubin, alkaline phosphatase, ALT (SGPT), AST (SGOT), blood urea nitrogen (BUN), creatinine, glucose, uric acid, calcium, phosphorus, total protein, albumin, total cholesterol, LDL, HDL, triglycerides, sodium, potassium, bicarbonate, chloride, GGT and creatine kinase, Hepatitis B, C and HIV serologies, TSH, drug screen and serum pregnancy test for females.
as §1, §2

symptoms of depression = details: eight weeks of treatment; Sepracor Press Release, Jul. 1, 2009; cited from earlier work

Row | Compound | Response rate, MADRS ([1]; Visit 8, LOCF, Completers, 100 mg, 50% reduction or more of baseline total score, 8/20) [%] | Response rate, HAMD-17 ([1]; Visit 8, LOCF, Completers, 100 mg, 50% reduction or more of baseline total score, 11/20) [%] | Remission rate, HAMD-17 ([1]; Visit 8, LOCF, Completers, 100 mg, HAMD-17 ≤ 7, 4/20) [%] | Remission rate, MADRS ([1]; Visit 8, LOCF, Completers, 100 mg, MADRS ≤ 12, 6/20) [%] | CGI-S LS mean, Difference placebo vs drug ([1]; Visit 8, MMRM, MITT, 95% CI (−0.21, 0.66), P = 0.306) | overall statistical effect size (Cohen's d), MADRS total score vs placebo ([1]; Week 6, MMRM) | percentage of patients who reported an adverse treatment event ([2]; 10 patients, placebo 11 or 39.28%) [%] | Treatment-Emergent Adverse Events: Abdominal Pain (NOS) (% of Patients) ([2]; n = 33) | Treatment-Emergent Adverse Events: Anxiety (% of Patients) ([2]; n = 33) | Treatment-Emergent Adverse Events: Diarrhea NOS (% of Patients) ([2]; n = 33) | Treatment-Emergent Adverse Events: Emotional Disturbance NOS (% of Patients) ([2]; n = 33) | Treatment-Emergent Adverse Events: Headache NOS (% of Patients) ([2]; n = 33) | Treatment-Emergent Adverse Events: Irritability (% of Patients) ([2]; n = 33) | Treatment-Emergent Adverse Events: Nausea (% of Patients) ([2]; n = 33) | Treatment-Emergent Adverse Events: Rash NOS (% of Patients) ([2]; n = 33) | Treatment-Emergent Adverse Events: Upper Respiratory Tract Infection NOS (% of Patients) ([2]; n = 33) | patients who discontinued the study early due to AEs ([2]; same number in the placebo group) | serious AEs ([2]; six-week study) | primary efficacy endpoint compared to placebo (reduction in symptoms of depression, 17-item HAM-D) (symptoms of depression)
1 | Clc1ccc([C@]23CNC[C@H]2C3)cc1Cl [(+)-1-(3,4-dichlorophenyl)-3-azabicyclo[3.1.0]hexane] | 40.00 | 55.00 | 20.00 | 30.00 | 0.22 | −0.63 | 30.30 | 2 (6.06%) | 2 (6.06%) | 2 (6.06%) | 2 (6.06%) | 3 (9.09%) | 2 (6.06%) | 2 (6.06%) | 2 (6.06%) | 2 (6.06%) | Two | no serious AEs were reported | 
2 | N[C@@H]1CC[C@@H](c2ccc(Cl)c(Cl)c2)c2ccccc21 [SEP-225289] |  |  |  |  |  |  |  |  |  |  |  |  |  |  |  |  |  |  | did not meet the primary efficacy endpoint compared to placebo
